Entries after “also recorded” stand apart in the source; their conditions may differ. Where two headings read alike, the source gives them in different places.
How the values were obtained:
[1] = test system: L929 cells; test: TNF-induced necroptosis, cell viability by ATP levels; type: cell-based; settings: Mus musculus, L929, 24 h
Description: Necroptosis is tightly regulated by RIP kinases including RIPK1 and RIPK3. To develop new necroptosis inhibitors, we screened a small-molecule library of around 240 potential kinase inhibitors that were designed with novel structures to affect the ATP-binding pocket of protein kinases. Human colon cancer HT-29 cells were treated with these compounds for […], followed by treatment with necroptotic stimuli (TNFα, Smac mimetic, and z-VAD) that are known to activate TNF-mediated necroptosis. After 48 h, cell viability was analyzed by monitoring ATP levels.
Fig. 1 PK6 efficiently blocks TNF-α induced necroptosis in both human and mouse cells. a HT-29 cells cultured in 96-well plates were pretreated with the indicated compounds (10 μM) from a library consisting of ~240 compounds that we designed with novel structures for 1 h and subsequently treated with 40 ng/ml TNF-α (T), 100 nM Smac mimetic (S), and the caspase inhibitor 20 μM z-VAD(Z) for 48 h. Cell viability was assessed by measuring ATP levels. Data are represented as the mean ± standard deviation of duplicates. b Chemical structure of PK6. c Dose response curve and EC50 ± SD value for PK6 in TNF-α induced necroptosis in HT-29 cells. Cells were pretreated with indicated concentrations of PK6 for 1 h prior to the treatment with T (40 ng/ml), S (100 nM), and Z (20 μM) for 48 h. Cell viability was assessed by measuring ATP levels. d U937 cells were pretreated with indicated concentrations of PK6 for 1 h followed by the treatment with T (40 ng/ml), S (100 nM), and Z (20 μM) for 24 h. e MEF cells were pretreated with indicated concentrations of PK6 for 1 h followed by the treatment with T (40 ng/ml), S (100 nM), and Z (20 μM) for 24 h. f L929 cells were pretreated with indicated concentrations of PK6 for 1 h prior to the treatment with S (100 nM) and Z (20 μM) for 24 h.
Fig. 2 Chemical optimization of PK6 leads to improvements in anti-necroptotic activity. a, b The effects of the indicated compounds on cell viability were examined in HT-29 cells (a) and L929 cells (b). HT-29 cells were treated as indicate for 48 h and L929 cells for 24 h. Cell viability was assessed by measuring ATP levels. Data are represented as the mean ± standard deviation of triplicates. c Structure and EC50 ± SD value of each compound are shown in the table. EC50 values are the average of at least two independent determinations. d Lead optimization of PK6 TEXT PRINTED IN THE PICTURE: (c) PK6: EC50(nM) HT-29: 1200±53; EC50(nM) L929: 760±26 | (c) PK67: EC50(nM) HT-29: 250±6.3; EC50(nM) L929: 130±6.8 | (c) PK81: EC50(nM) HT-29: 120±7.6; EC50(nM) L929: 20±0.98 | (c) PK84: EC50(nM) HT-29: 97±6.7; EC50(nM) L929: 45±2.1 | (c) PK93: EC50(nM) HT-29: 130±36; EC50(nM) L929: 30±7.4 | (c) PK86: EC50(nM) HT-29: 73±3.9; EC50(nM) L929: 15±1.0 | (c) PK68: EC50(nM) HT-29: 23±1.4; EC50(nM) L929: 13±0.85
(§1) The cell viability was analyzed by using the CellTiter-Glo Luminescent Cell Viability Assay kit following the manufacturer’s instructions (Promega). Luminescence was measured with SpectraMax i3x (Molecular Devices).

[2] = test system: NF-κB activation in HT-29 cells; test: TNF-induced NF-κB activation, western blot of IκB-α and phospho-IκB-α; type: cell-based, human; settings: TNF-α 40 ng/ml 15 min
Description: (§2) Further, we evaluated the selectivity of PK68 against a panel of 369 kinases provided by Reaction Biology (at 1000 nM). […] In addition, we followed on some of the active “hits” from the kinome scan. PK68 was tested against TNIK and TRKA by a reputable CRO company. […] RIPK1 is known to mediate NF-κB activation independently of its kinase activity. […] It has been shown that homodimerization of RIPK3 or MLKL induced by the dimerizer leads to necroptosis bypassing the upstream signals[10],[37]. […] This dimerized RIPK3-induced necroptosis was blocked by RIPK3 inhibitor GSK873 but was not blocked by the RIPK1 inhibitor necrostatin-1. […] (Fig. 4e).
HT-29 cells were pretreated with indicated compounds for 1h prior to stimulation with TNF-α (40ng/ml) for 15 minutes. The levels of IκB-α and phosphor-IκB-α were analyzed by western blot analysis. The NF-κB inhibitor BMS-345541 was used as a positive control.

[3] = test system: NIH3T3-RIPK3 cells; test: RIPK3 dimerization-induced necroptosis (AP20187); type: cell-based, mouse; settings: AP20187 100 nM, 24 h
Description: Recombinant proteins were incubated with PK6 and PK68 as indicated. […] NIH3T3-RIPK3 cells were pretreated with indicated compounds for 1 h and subsequently treated with T (40 ng/ml)/S (100 nM)/Z (20 μM) or AP20187 (100 nM) for 24 h. Cell viability was determined by measuring ATP levels. e PK6 and PK68 have no effect on MLKL dimerization-induced cell death in HeLa-MLKL (1–190) cells that stably express MLKL (1–190aa) fused to DmrB. HeLa-MLKL (1–190) cells were pretreated with indicated compounds for 1 h and subsequently treated with AP20187 (100 nM) for 24 h. Cell viability was determined by measuring ATP levels.
as §2, §1

| Compound | EC50 ([1]; S 100 nM and Z 20 μM, read-out: EC50, TNF-induced necroptosis) | TNF-induced NF-κB activation [2] | RIPK3 dimerization-induced necroptosis [3] | EC50 ([1]; read-out: EC50(nM) L929) |
| --- | --- | --- | --- | --- |
| CC(=O)Nc1nc2ccc(-c3cnc(Cl)c(NC(=O)Cc4ccccc4)c3)cc2s1 [PK6, N-(5-(2-acetamidobenzo[d]thiazol-6-yl)-2-chloropyridin-3-yl)-2-phenylacetamide] | ~760 nM | no obvious effects; also recorded: no impact; also recorded: no effect | neither PK6 nor PK68 blocked |  |
| CC(=O)Nc1nc2ccc(-c3cnc(C)c(NC(=O)OC4CCCCC4)c3)cc2s1 [PK68, cyclohexyl (5-(2-acetamidobenzo[d]thiazol-6-yl)-2-methylpyridin-3-yl)carbamate] |  | no obvious effects; also recorded: no impact; also recorded: no effect | neither PK6 nor PK68 blocked | 13 nM |
